Literature values, collected in patent US9163134B2, “Highly functional additive for polymerization and method for preparing vinyl chloride seeds using the same” (LG CHEM, LTD., priority 2011, dated 2015).
Converted amounts (≈) assume the structure as drawn.

Row | Solubility in water (mg/L) | Solubility in water [µg/mL] | SMILES
1 | ∞ |  | CCO [C2H5—OH]
2 |  | 6260 (≈ 61.3 mM) | CCCCCCO [C6H13—OH]
3 |  | 540 (≈ 4.15 mM) | CCCCCCCCO [C8H17—OH]
4 |  | 37 (≈ 0.234 mM) | CCCCCCCCCCO [C10H21—OH]
